Columns and labels:
[1] = test system: Mouse IL-6 secretion, RAW264.7; test: Mouse IL-6 production in Raw264.7 cells (ELISA); type: cell-based; details: for Mouse IL-6 Content, Average / Mouse IL-6 Content, Entry 2 / Mouse IL-6 Content, Entry 3 / Mouse IL-6 Content, Entry 1: Raw264.7, LPS & IFN-r, 24 hours, Positive Control 100%; for Mouse IL-6 Content, Entry 2: passage N + 3; for Mouse IL-6 Content, Entry 3: passage N + 6; for Mouse IL-6 Content, Entry 1: passage N + 7
Protocol: Murine macrophage cell line RAW264.7 (BCRC No. 60001)
Complete Medium (as negative control): DMEM medium with 10% Fetal Bovine Serum
Testing Medium (as positive control): 100 ng/mL LPS and 10 ng/mL IFN-r in Complete Medium
a. Rinse the confluent Raw264.7 cells with sterile D-PBS then trypsinize all cells and perform cell counting.
b. Dilute the cell density to 2E+05/mL and seed 0.1 mL cell liquid (equals to 2E+04 cells) each well in 96-well plate.
c. Incubate Raw264.7 cells at 37° C., 5% CO2 for about 24 hours.
d. Prepared 2× dosing solution of testing material in 2× Testing Medium (means w/ 200 ng/mL ? LPS&20 ng/mL ? IFN-r): 0.8%, 0.4%, 0.2%, 0.1% (Final testing material: 0.4%, 0.2%, 0.1%, 0.05%)
e. […] Add 100 μL controls and testing materials in different concentrations into Raw264.7 cells in 96 well plates. Controls/Test materials should be tested at least three wells.
f. Incubate Raw264.7 cells at 37° C., 5% CO2 for about 24 hours.
g. After incubating for about 24 hours, collect the supernatant of controls and testing materials.
h. Determine the IL-6/MIP-2 content of the supernatant by R&D ELISA kit as mentioned previously.

[2] = test system: Mlph (melanophilin) protein in B16-F10 cells; test: Reduction of melanophilin expression on translational level (western blot); type: cell-based, Murine; details: B16-F10 w/FSK; for Mlph protein expression level, Average / Mlph protein expression level, Entry 1 / Mlph protein expression level, Entry 2 / Mlph protein expression level, Entry 3: about 48 hours, Positive Control 100%
Protocol: (§1) Murine melanoma cell line B16-F10 (BCRC No. 60031)
Complete Medium (as negative control): DMEM with 10% Fetal Bovine Serum
Testing Medium (as positive control): 20 μM forskolin (FSK) in Complete Medium
(§2) a. Rinse the confluent B16-F10 cells with sterile D-PBS then trypsinize all cells and perform cell counting.
b. Seeding 2.5E+05 cells per 6-cm dish.
(§3) c. Incubate B16F10 cells at 37° C., 5% CO2 for about 24 hours.
d. Prepared 0.5%/0.25%/0.125% testing material in Testing Medium.
e. Discard the medium and add 3 mL controls and testing material into B16-F10 cells in 6-cm dish.
f. Incubate B16-F10 cells at 37° C., 5% CO2 for about 48 hour.
g. After incubating for about 48 hours, discard the supernatant and wash the B16-F10 cells with sterile D-PBS.
h. Mlph protein expression is measured by western blot. Western blot conditions: • Loading protein amount: 40 μg/well • Protein transfer by Semi-dry Transfer Apparatus • Immunoblot with Primary Ab (1:250 dilution) at 4° C. overnight • Incubate with secondary Ab (1:5000 dilution) at room temperature for 1 hour • Detection was performed with the ECL system • Relative quantification of protein expression was measured by IMAGEJ free software). β-actin was used as the internal control for normalization • Data Analysis: […]

NHEK cells = test: Cell viability on NHEK; type: cell-based, Human; details: for cell viability on NHEK, Average / cell viability on NHEK, Entry 1 / cell viability on NHEK, Entry 2 / cell viability on NHEK, Entry 3: 40 mJ/cm^2 UVB, Positive Control 100%; for cell viability on NHEK, Entry 1: passage 2 + 2; for cell viability on NHEK, Entry 2 / cell viability on NHEK, Entry 3: passage 2 + 3
Protocol: 4.4. Cell Viability is Tested by Neutral Red Uptake Experience or MTT Assay.

[3] = test system: skin color (hyper pigmentation); test: Skin whitening test: skin color changes (L* value), Minolta chromameter; type: in vivo, human; details: for Hyper pigmentation Reduction - Skin Color Data, Max % Improvement / Hyper pigmentation Reduction - Skin Color Data, % Difference: 0.2% Ac-Gly-β-Ala sample; for Hyper pigmentation Reduction - Skin Color Data, % Difference: L* value
Protocol: In this example, the in-vivo skin test is finished by AMA Laboratories USA. The skin color changes are evaluated with Minolta chromameter color computer system. The Age spot photography is evaluated with Reverse Photo Engineering Quantitative Analysis.
In terms of skin color changes, the participants were women aged 25-48 years old, wherein nine of the participants were caucasian, and one was Asian. The participants were tested before (baseline), and after using 14, 28, 56 days with Minolta chromameter color computer system to perform the skin color change evaluation. And the samples used for the skin color change evaluation is 0.2% Ac-Gly-β-Ala.

[4] = test system: Mlph (melanophilin) mRNA in B16-F10 cells; test: Reduction of melanophilin expression on transcriptional level (qPCR); type: cell-based, Murine
Protocol: as §1, §2
b. Seeding 2E+06 cells per 10-cm dish.
as §3
d. Prepared 0.5% testing material in Complete Medium.
e. Discard the medium and add 9 mL Complete Medium and 0.5% testing material into B16-F10 cells in 10-cm dish.
f. Incubate B16-F10 cells at 37° C., 5% CO2 for about 1 hour.
g. After incubating for about 1 hour, discard the supernatant and wash the B16-F10 cells with sterile D-PBS.
h. Add 3 mL Trizol to suspend cells and qPCR test by Welgene Biotech Co., Ltd (outsourcing test).

[5] = 0.5% Ac-Gly-β-Ala, B16-F10, about 1 hour, Control 100%

## CC(=O)NCC(=O)NCCC(=O)O [Ac-Gly-β-Ala, 3-(2-acetylamino-acetylamino)-propionic acid]
[1]; 0.05%-0.4%, Raw264.7
  IL-6 production, dose dependence: dose-dependently inhibited
[1]; 0.05%
  Mouse IL-6 Content, Average: 97%
  Mouse IL-6 Content, Entry 2: 105%
  Mouse IL-6 Content, Entry 3: 95%
  Mouse IL-6 Content, Entry 1: 91%
[1]; 0.10%
  Mouse IL-6 Content, Average: 86%
  Mouse IL-6 Content, Entry 2: 96%
  Mouse IL-6 Content, Entry 3: 78%
  Mouse IL-6 Content, Entry 1: 85%
[1]; 0.20%
  Mouse IL-6 Content, Average: 54%
  Mouse IL-6 Content, Entry 2: 58%
  Mouse IL-6 Content, Entry 3: 42%
  Mouse IL-6 Content, Entry 1: 64%
[1]; 0.40%
  Mouse IL-6 Content, Average: 34%
  Mouse IL-6 Content, Entry 2: 40%
  Mouse IL-6 Content, Entry 3: 40%
  Mouse IL-6 Content, Entry 1: 24%
[2]; 0.125%
  Mlph protein expression level, Average: 71.3%
  Mlph protein expression level, Entry 1: 66.8%
  Mlph protein expression level, Entry 2: 65.7%
  Mlph protein expression level, Entry 3: 81.2%
[2]; 0.25%
  Mlph protein expression level, Average: 62.0%
  Mlph protein expression level, Entry 1: 49.4%
  Mlph protein expression level, Entry 2: 12.8%
  Mlph protein expression level, Entry 3: 123.8%
[2]; 0.5%
  Mlph protein expression level, Average: 24.3%
  Mlph protein expression level, Entry 1: 36.5%
  Mlph protein expression level, Entry 2: 10.6%
  Mlph protein expression level, Entry 3: 25.8%
[2]
  effect on Mlph in translational (protein) level: inhibitory effect
NHEK cells; 0.01%
  cell viability on NHEK, Average: 80%
  cell viability on NHEK, Entry 1: 80%
  cell viability on NHEK, Entry 2: 82%
  cell viability on NHEK, Entry 3: 76%
NHEK cells; 0.03%
  cell viability on NHEK, Average: 84%
  cell viability on NHEK, Entry 1: 88%
  cell viability on NHEK, Entry 2: 80%
  cell viability on NHEK, Entry 3: 83%
NHEK cells; 0.05%
  cell viability on NHEK, Average: 93%
  cell viability on NHEK, Entry 1: 93%
  cell viability on NHEK, Entry 2: 90%
  cell viability on NHEK, Entry 3: 95%
NHEK cells; 0.10%
  cell viability on NHEK, Average: 108%
  cell viability on NHEK, Entry 1: 109%
  cell viability on NHEK, Entry 2: 103%
  cell viability on NHEK, Entry 3: 110%
NHEK cells; 0.20%
  cell viability on NHEK, Average: 109%
  cell viability on NHEK, Entry 1: 106%
  cell viability on NHEK, Entry 2: 107%
  cell viability on NHEK, Entry 3: 113%
NHEK cells; 0.40%
  cell viability on NHEK, Average: 93%
  cell viability on NHEK, Entry 1: 106%
  cell viability on NHEK, Entry 2: 95%
  cell viability on NHEK, Entry 3: 79%
NHEK cells; NHEK, all of dosing solution
  Cell viability: higher than 80%
[3]; Day 14
  Hyper pigmentation Reduction - Skin Color Data, Max % Improvement: 62.84%
[3]; Day 14 vs baseline
  Hyper pigmentation Reduction - Skin Color Data, % Difference: 26.90%*
[3]; Day 28
  Hyper pigmentation Reduction - Skin Color Data, Max % Improvement: 87.34%
[3]; Day 28 vs baseline
  Hyper pigmentation Reduction - Skin Color Data, % Difference: 41.07%*
[3]; Day 56
  Hyper pigmentation Reduction - Skin Color Data, Max % Improvement: 87.97%
[3]; Day 56 vs baseline
  Hyper pigmentation Reduction - Skin Color Data, % Difference: 41.64%*
[3]; test sample with 0.2% Ac-Gly-β-Ala
  L* value of skin: can increase the L* value of skin
[4]; [5]
  Mlph mRNA expression level, Average: 55%
  Mlph mRNA expression level, Entry 1: 80%
  Mlph mRNA expression level, Entry 2: 40%
  Mlph mRNA expression level, Entry 3: 46%
[4]; 0.5%, B16-F10
  effect on Mlph in transcriptional (mRNA) level: inhibitory effect

Source: patent US20140314697A1, “Method for Inhibiting Inflammation and Reducing Melanophilin Expression with Glycine Derivatives And the Composition Thereof” (CORUM INC., priority 2013, published 2014)
